Laboratory results published in patent publication US10314823B2, “Substituted 1,2-dihydro-3H-pyrrolo[1,2-c]imidazol-3-one antibacterial compounds” (IDORSIA PHARMACEUTICALS LTD, priority 2015, dated 2019).
Converted amounts (≈) assume the structure as drawn.

Tests used:
Experiment in all cases: Bacterial growth minimal inhibitory concentration (CLSI broth microdilution)
Type in all cases: cell-based
K. pneumoniae A-651 = conditions: Klebsiella pneumoniae, A651; multiply resistant strain (in particular quinolone-resistant); cation-adjusted Mueller-Hinton Broth
Experimental: (§1) Minimal Inhibitory Concentrations (MICs; mg/L) were determined in cation-adjusted Mueller-Hinton Broth by a microdilution method following the description given in “Methods for Dilution Antimicrobial Susceptibility Tests for Bacteria that Grow Aerobically”, Approved standard, 7th ed., Clinical and Laboratory Standards Institute (CLSI) Document M7-A7, Wayne, Pa., USA (2006).
(§2) All Reference Example compounds were tested against several Gram-negative bacteria. K. pneumoniae A-651 is a multiply resistant strain (in particular quinolone-resistant), while E. coli ATCC25922 and P. aeruginosa ATCC27853 are quinolone-sensitive strains. The corresponding antibacterial test results are given in Table 1 hereafter (MICs in mg/L).

P. aeruginosa ATCC27853 = conditions: Pseudomonas aeruginosa, ATCC27853; quinolone-sensitive strain; cation-adjusted Mueller-Hinton Broth
Experimental: as §1, §2

E. coli ATCC25922 = conditions: Escherichia coli, ATCC25922; quinolone-sensitive strain; cation-adjusted Mueller-Hinton Broth
Experimental: as §1, §2

Row | Compound | MIC (K. pneumoniae A-651) | MIC (P. aeruginosa ATCC27853) | MIC (E. coli ATCC25922)
1 | C[C@@](CCN1Cc2cc(C#Cc3ccc(CN4CC(CO)OC4=O)cc3)cn2C1=O)(C(=O)NO)S(C)(=O)=O (mixture of isomers) [Example 12, (2R)—N-hydroxy-4-(6-((4-((RS)-(5-(hydroxymethyl)-2-oxooxazolidin-3-yl)methyl)phenyl)ethynyl)-3-oxo-1H-pyrrolo[1,2-c]imidazol-2(3H)-yl)-2-methyl-2-(methylsulfonyl)butanamide] | 2 µg/mL | 4 µg/mL | 1 µg/mL
2 | COCCN(C)CC(O)c1ccc(C#Cc2cc3n(c2)C(=O)N(CC[C@](C)(C(=O)NO)S(C)(=O)=O)C3)cc1 (mixture of isomers) [Example 28, (2R)—N-hydroxy-4-(6-((RS)-(4-(1-hydroxy-2-((2-methoxyethyl)(methyl)amino)ethyl)phenyl)ethynyl)-3-oxo-1H-pyrrolo[1,2-c]imidazol-2(3H)-yl)-2-methyl-2-(methylsulfonyl)butanamide] | 8 µg/mL | 2 µg/mL | 1 µg/mL
3 | C[C@@](CCN1Cc2cc(C#CC#CC3(F)CCN(C4CC4)C3)cn2C1=O)(C(=O)NO)S(C)(=O)=O (mixture of isomers) [Example 76, (2R)-4-(6-(((3RS)-1-cyclopropyl-3-fluoropyrrolidin-3-yl)buta-1,3-diyn-1-yl)-3-oxo-1H-pyrrolo[1,2-c]imidazol-2(3H)-yl)-N-hydroxy-2-methyl-2-(methylsulfonyl)butanamide] | 0.25 µg/mL | 2 µg/mL | 0.125 µg/mL
4 | C[C@@](CCN1Cc2cc(C#CC#CC3(F)CCN(CCO)C3)cn2C1=O)(C(=O)NO)S(C)(=O)=O (mixture of isomers) [Example 77, (2R)-4-(6-(((3RS)-3-fluoro-1-(2-hydroxyethyl)pyrrolidin-3-yl)buta-1,3-diyn-1-yl)-3-oxo-1H-pyrrolo[1,2-c]imidazol-2(3H)-yl)-N-hydroxy-2-methyl-2-(methylsulfonyl)butanamide] | 1 µg/mL | 1 µg/mL | 0.5 µg/mL
5 | C[C@@](CCN1Cc2cc(C#CC#CC3(F)CCNC3)cn2C1=O)(C(=O)NO)S(C)(=O)=O (mixture of isomers) [Example 78, (2R)-4-(6-(((3RS)-3-fluoropyrrolidin-3-yl)buta-1,3-diyn-1-yl)-3-oxo-1H-pyrrolo[1,2-c]imidazol-2(3H)-yl)-N-hydroxy-2-methyl-2-(methylsulfonyl)butanamide] | 1 µg/mL | 1 µg/mL | 1 µg/mL
6 | CN1CCC(C)(C#CC#Cc2cc3n(c2)C(=O)N(CC[C@](C)(C(=O)NO)S(C)(=O)=O)C3)C1 (mixture of isomers) [Example 82, (2R)-4-(6-(((3RS)-1,3-dimethylpyrrolidin-3-yl)buta-1,3-diyn-1-yl)-3-oxo-1H-pyrrolo[1,2-c]imidazol-2(3H)-yl)-N-hydroxy-2-methyl-2-(methylsulfonyl)butanamide] | 2 µg/mL | 4 µg/mL | 2 µg/mL
7 | CN1CCC(C#CC#Cc2cc3n(c2)C(=O)N(CC[C@](C)(C(=O)NO)S(C)(=O)=O)C3)C1 (mixture of isomers) [Example 83, (2R)—N-hydroxy-2-methyl-4-(6-(((3RS)-1-methylpyrrolidin-3-yl)buta-1,3-diyn-1-yl)-3-oxo-1H-pyrrolo[1,2-c]imidazol-2(3H)-yl)-2-(methylsulfonyl)butanamide] | 1 µg/mL | 1 µg/mL | 2 µg/mL
8 | C[C@@](CCN1Cc2cc(C#Cc3ccc(CN4CC[C@H](N)[C@@H](F)C4)cc3)cn2C1=O)(C(=O)NO)S(C)(=O)=O (relative stereo) [Example 13, (2R)-4-(6-((4-(((3S*,4S*)-4-amino-3-fluoropiperidin-1-yl)methyl)phenyl)ethynyl)-3-oxo-1H-pyrrolo[1,2-c]imidazol-2(3H)-yl)-N-hydroxy-2-methyl-2-(methylsulfonyl)butanamide] | 1 µg/mL (≈ 1.83 µM) | 1 µg/mL (≈ 1.83 µM) | 1 µg/mL (≈ 1.83 µM)
9 | C[C@@](CCN1Cc2cc(C#Cc3ccc(CN4CC[C@H](O)[C@@H](F)C4)cc3)cn2C1=O)(C(=O)NO)S(C)(=O)=O (relative stereo) [Example 36, (2R)-4-(6-((4-(((3S*,4S*)-3-fluoro-4-hydroxypiperidin-1-yl)methyl)phenyl)ethynyl)-3-oxo-1H-pyrrolo[1,2-c]imidazol-2(3H)-yl)-N-hydroxy-2-methyl-2-(methylsulfonyl)butanamide] | 0.5 µg/mL (≈ 0.915 µM) | 1 µg/mL (≈ 1.83 µM) | 0.25 µg/mL (≈ 0.457 µM)
10 | C[C@@](CCN1Cc2cc(C#Cc3ccc(CN4CC[C@H](O)[C@H](F)C4)cc3)cn2C1=O)(C(=O)NO)S(C)(=O)=O (relative stereo) [Example 42, (2R)-4-(6-((4-(((3R*,4S*)-3-fluoro-4-hydroxypiperidin-1-yl)methyl)phenyl)ethynyl)-3-oxo-1H-pyrrolo[1,2-c]imidazol-2(3H)-yl)-N-hydroxy-2-methyl-2-(methylsulfonyl)butanamide] | 1 µg/mL (≈ 1.83 µM) | 2 µg/mL (≈ 3.66 µM) | 0.5 µg/mL (≈ 0.915 µM)
11 | CN1C[C@H](O)[C@@H](C#CC#Cc2cc3n(c2)C(=O)N(CC[C@](C)(C(=O)NO)S(C)(=O)=O)C3)C1 (relative stereo) [Example 99, (2R)—N-hydroxy-4-(6-(((3S*,4R*)-4-hydroxy-1-methylpyrrolidin-3-yl)buta-1,3-diyn-1-yl)-3-oxo-1H-pyrrolo[1,2-c]imidazol-2(3H)-yl)-2-methyl-2-(methylsulfonyl)butanamide] | 2 µg/mL (≈ 4.32 µM) | 2 µg/mL (≈ 4.32 µM) | 2 µg/mL (≈ 4.32 µM)
12 | C[C@@](CCN1Cc2cc(C#Cc3ccc([C@@H](O)CN4CCOCC4)cc3)cn2C1=O)(C(=O)NO)S(C)(=O)=O (single isomer, unassigned) [Example 1] | 2 µg/mL (≈ 3.67 µM) | 2 µg/mL (≈ 3.67 µM) | 1 µg/mL (≈ 1.84 µM)
13 | C[C@@](CCN1Cc2cc(C#Cc3ccc([C@H](O)CN4CCOCC4)cc3)cn2C1=O)(C(=O)NO)S(C)(=O)=O (single isomer, unassigned) [Example 2] | 1 µg/mL (≈ 1.84 µM) | 1 µg/mL (≈ 1.84 µM) | 1 µg/mL (≈ 1.84 µM)
14 | CN1CC[C@@](F)(C#CC#Cc2cc3n(c2)C(=O)N(CC[C@](C)(C(=O)NO)S(C)(=O)=O)C3)C1.O=C(O)C(F)(F)F (single isomer, unassigned) [Example 71] | 0.5 µg/mL | 2 µg/mL | 0.25 µg/mL
15 | CN1CC[C@](F)(C#CC#Cc2cc3n(c2)C(=O)N(CC[C@](C)(C(=O)NO)S(C)(=O)=O)C3)C1.O=C(O)C(F)(F)F (single isomer, unassigned) [Example 72] | 0.5 µg/mL | 2 µg/mL | 0.5 µg/mL
16 | CN1C[C@@H](C#CC#Cc2cc3n(c2)C(=O)N(CC[C@](C)(C(=O)NO)S(C)(=O)=O)C3)C[C@@H]1CO (single isomer, unassigned) [Example 94] | 1 µg/mL (≈ 2.1 µM) | 0.5 µg/mL (≈ 1.05 µM) | 1 µg/mL (≈ 2.1 µM)
17 | C[C@@](CCN1Cc2cc(C#Cc3ccc(CN4CC5(COC5)C4)cc3)cn2C1=O)(C(=O)NO)S(C)(=O)=O [Example 3, (2R)-4-(6-((4-((2-oxa-6-azaspiro[3.3]heptan-6-yl)methyl)phenyl)ethynyl)-3-oxo-1H-pyrrolo[1,2-c]imidazol-2(3H)-yl)-N-hydroxy-2-methyl-2-(methylsulfonyl)butanamide] | 1 µg/mL (≈ 1.9 µM) | 1 µg/mL (≈ 1.9 µM) | 0.25 µg/mL (≈ 0.475 µM)
18 | C[C@@](CCN1Cc2cc(C#Cc3ccc(CN4CC5C(N)C5C4)cc3)cn2C1=O)(C(=O)NO)S(C)(=O)=O (stereo partly drawn) [Example 4, (2R)-4-(6-((4-((6-amino-3-azabicyclo[3.1.0]hexan-3-yl)methyl)phenyl)ethynyl)-3-oxo-1H-pyrrolo[1,2-c]imidazol-2(3H)-yl)-N-hydroxy-2-methyl-2-(methylsulfonyl)butanamide] | 2 µg/mL (≈ 3.8 µM) | 2 µg/mL (≈ 3.8 µM) | 2 µg/mL (≈ 3.8 µM)
19 | C[C@@](CCN1Cc2cc(C#Cc3ccc(COC(=O)N4CCC(O)CC4)cc3)cn2C1=O)(C(=O)NO)S(C)(=O)=O [Example 5, (3R)-4-((2-(4-(hydroxyamino)-3-methyl-3-(methylsulfonyl)-4-oxobutyl)-3-oxo-2,3-dihydro-1H-pyrrolo[1,2-c]imidazol-6-yl)ethynyl)benzyl 4-hydroxypiperidine-1-carboxylate] | 1 µg/mL (≈ 1.75 µM) | 2 µg/mL (≈ 3.49 µM) | 0.25 µg/mL (≈ 0.437 µM)
20 | CC(=O)N1CC(O)(c2ccc(C#Cc3cc4n(c3)C(=O)N(CC[C@](C)(C(=O)NO)S(C)(=O)=O)C4)cc2)C1 [Example 6, (2R)-4-(6-((4-(1-acetyl-3-hydroxyazetidin-3-yl)phenyl)ethynyl)-3-oxo-1H-pyrrolo[1,2-c]imidazol-2(3H)-yl)-N-hydroxy-2-methyl-2-(methylsulfonyl)butanamide] | 4 µg/mL (≈ 7.57 µM) | 1 µg/mL (≈ 1.89 µM) | 2 µg/mL (≈ 3.78 µM)
21 | C[C@@](CCN1Cc2cc(C#CC#C[C@@H]3C[C@H]3[C@H](O)CO)cn2C1=O)(C(=O)NO)S(C)(=O)=O [Example 7, (2R)-4-(6-(((1R,2R)-2-((S)-1,2-dihydroxyethyl)cyclopropyl)buta-1,3-diyn-1-yl)-3-oxo-1H-pyrrolo[1,2-c]imidazol-2(3H)-yl)-N-hydroxy-2-methyl-2-(methylsulfonyl)butanamide] | 2 µg/mL (≈ 4.31 µM) | 0.5 µg/mL (≈ 1.08 µM) | 0.5 µg/mL (≈ 1.08 µM)
22 | C[C@@](CCN1Cc2cc(C#CC#CCOC(=O)N3CCC(O)CC3)cn2C1=O)(C(=O)NO)S(C)(=O)=O [Example 8, (3R)-5-(2-(4-(hydroxyamino)-3-methyl-3-(methylsulfonyl)-4-oxobutyl)-3-oxo-2,3-dihydro-1H-pyrrolo[1,2-c]imidazol-6-yl)penta-2,4-diyn-1-yl 4-hydroxypiperidine-1-carboxylate] | 2 µg/mL (≈ 3.84 µM) | 2 µg/mL (≈ 3.84 µM) | 1 µg/mL (≈ 1.92 µM)
